Where “and” joins values, the source holds several entries; their conditions need not be identical. Identical values can stand only once.
System: OPM-2 xenografts
Test: OPM-2 xenograft efficacy (tumor volume, body weight)
Format: in vivo, mouse
Conditions: for Body Weight (g) Day 21, individual animals / Body Weight Day 21, Mean / Body Weight Day 21, Median / Relative to initial body wt., %: mouse, in vivo, iv
Description: All animal studies were conducted in accordance with the guidelines approved by the Institutional Animal Care and Use Committees of AbbVie. The research protocol was approved by In Vivo Pharmacology at AbbVie prior to study initiation but was not publicly registered or disclosed. Female C.B-17 SCID-beige mice (AMO-1, OPM-2, NCI-H929, and OCI-AML2 xenografts) and female NSG mice (MV4-11-Red.Fluc systemic) were purchased from Charles River Laboratories (Wilmington, MA). Animals were housed in a light cycle-controlled room with HEPA filtration at 22 °C. Animals had nesting and climbing cage topper as the primary environmental enrichment. Animals were inoculated subcutaneously in the right flank with 5 × 10^6 (AMO-1, OPM-2, NCI-H929, and OCI-AML2) or intravenous (IV) with 5 × 10^6 (MV4-11-Red.Fluc). The inoculation volume (0.2 mL) comprised a 50:50 mixture of cells in growth media and Matrigel (BD Biosciences) for subcutaneous injections and 100% phosphate-buffered saline for IV administration. All cell lines used in this publication were authenticated using IDEXX for STR profiling as well as their IMPACT and human IMPACT panels for pathogen screening. Electronic calipers were used to measure the length and width of each tumor 2 to 3 times per week. Tumor volume was estimated by applying the following equation: volume = length × width^2/2. All groups remained blinded during measurements and dosing; only veterinary staff were aware of group identity. When tumors reached approximately 200 mm^3, mice were randomized by match and distributed into treatment and control groups. All xenograft trials were conducted using 5 to 10 mice per group, and all mice were ear tagged and monitored individually throughout the studies. Any animal with a tumor above 2000 mm^3 or 15% loss in body weight was euthanized and removed from the study. Tumor burden in the systemic MV4-11-Red.Fluc experiment was measured using an IVIS® spectrum from PerkinElmer by taking the total photon flux of the entire dorsal side of an individual mouse. Ten minutes prior to imaging, animals received intraperitoneally 0.2 mL of a 15-mg/mL solution of D-Luciferin (PerkinElmer, Catalog #122799) formulated in 100% phosphate-buffered saline. Animals were anesthetized using 3.5% isoflurane and maintained using 2%. Six days after inoculation, animals were imaged and randomized into vehicle and treatment groups at a total flux of ~1 × 10^8. A background control mouse that was tumor naive but received D-Luciferin was placed in the upper left corner of each image. The total flux from this animal was subtracted from the total flux of each animal present in the image.
For in vivo studies, maximal tumor growth inhibition (TGI) was calculated as the greatest treatment response using the following equation: Maximal TGI = (1 − mean tumor volume of the treated group/mean tumor volume of the vehicle control group) × 100. The tumor growth delay (TGD) percentage was determined as the percentage increase of the median time period for the treatment group to reach an arbitrary tumor volume of 1000 mm^3 relative to the vehicle control group. […] A power analysis was conducted using historical data to determine the number of animals required to yield significance of 0.05 at a 30% difference. There were no animals excluded. Data from experiments in vivo were analyzed using the student’s t-test for TGI values and the Mann–Whitney U test for TGD using Excel and GraphPad Prism. Fisher’s exact test was used to probe significance of differences in response frequency.

[1] = OPM-2 (DSMZ) xenograft, SCID-beige mouse, 25 mg/kg q7dx3 IV, Day 63
[2] = OPM-2 (DSMZ) xenograft, SCID-beige mouse, 25 mg/kg q7dx3 IV, Day 70
[3] = OPM-2 (DSMZ) xenograft, SCID-beige mouse, 25 mg/kg q7dx3 IV, Day 77
[4] = OPM-2 (DSMZ) xenograft, SCID-beige mouse, 25 mg/kg q7dx3 IV, Day 106
[5] = OPM-2 (DSMZ) xenograft, SCID-beige mouse, 25 mg/kg q7dx3 IV, Day 113
[6] = OPM-2 (DSMZ) xenograft, SCID-beige mouse, 25 mg/kg q7dx3 IV, Day 120
[7] = individual animals, 6.25 mg/kg q7dx3 IV, Day 37, OPM-2 (DSMZ) xenograft, SCID-beige mouse, 6.25 mg/kg

For `Cc1c(Cl)c2c(Cl)c(C)c1-c1c(-c3ccc(F)cc3)sc3ncnc(c13)O[C@@H](C(=O)O)Cc1cc(ccc1OCc1ccnc(-c3ccc(OC[C@H]4COCCO4)cc3)n1)OC[C@@H](CN1CCN(C)CC1)O2` [Compound A-1747745], which “Body Weight Day 21, % T/C (mean)” value (OPM-2 (DSMZ) xenograft, SCID-beige mice, 25 mg/kg q7dx3 IV, Day 21, mean(T)/mean(C)) is on record?
Its value is 105.36%.

And the “Body Weight Day 21, % T/C (median)” value (OPM-2 (DSMZ) xenograft, SCID-beige mice, 25 mg/kg q7dx3 IV, Day 21, median(T)/median(C))?
The value was 105.36%.

What about the “Tumor Volume (mm³) Day 63 (individual animals)” value [1] of the same compound?
Its value is 4 mm³.

And the “Tumor Volume Day 63, Mean” value [1]?
Its value is 4.00 mm³.

What about the “Tumor Volume Day 63, Median” value [1] of the same compound?
Its value is 4.00 mm³.

And the “Tumor Volume (mm³) Day 70 (individual animals)” value [2]?
Its value is 4 mm³.

What about the “Tumor Volume Day 70, Mean” value [2] of the same compound?
Its value is 4.00 mm³.

And the “Tumor Volume Day 70, Median” value [2]?
The value was 4.00 mm³.

What about the “Tumor Volume (mm³) Day 77 (individual animals)” value [3] of the same compound?
Its value is 4 mm³.

What about the “Tumor Volume Day 77, Mean” value [3] of the same compound?
Its value is 4.00 mm³.

And the “Tumor Volume Day 77, Median” value [3]?
The value was 4.00 mm³.

What about the “Tumor Volume (mm³) Day 106 (individual animals)” value [4] of the same compound?
The value was 4 mm³.

What about the “Tumor Volume Day 106, Mean” value [4] of the same compound?
The value was 4.00 mm³.

What about the “Tumor Volume Day 106, Median” value [4] of the same compound?
Its value is 4.00 mm³.

What about the “Tumor Volume (mm³) Day 113 (individual animals)” value [5] of the same compound?
The value was 4 mm³.

And the “Tumor Volume Day 113, Mean” value [5]?
The value was 4.00 mm³.

And the “Tumor Volume Day 113, Median” value [5]?
Its value is 4.00 mm³.

What about the “Tumor Volume (mm³) Day 120 (individual animals)” value [6] of the same compound?
Its value is 4 mm³.

And the “Tumor Volume Day 120, Mean” value [6]?
Its value is 4.00 mm³.

What about the “Tumor Volume Day 120, Median” value [6] of the same compound?
The value was 4.00 mm³.

What about the “Tumor Volume Day 37, Mean” value (group mean, 6.25 mg/kg q7dx3 IV, Day 37, OPM-2 (DSMZ) xenograft, SCID-beige mouse) of the same compound?
The value was 1067.37 mm³.

And the “Tumor Volume Day 37, Mean” value (group mean, 25 mg/kg q7dx3 IV, Day 37, OPM-2 (DSMZ) xenograft, SCID-beige mouse)?
The value was 4.00 mm³.

And the “Tumor Volume Day 41, Mean” value (group mean, 25 mg/kg q7dx3 IV, Day 41, SCID-beige mice)?
Its value is 4.00 mm³.

And the “Tumor Volume Day 44, Mean” value (group mean, 25 mg/kg q7dx3 IV, Day 44, SCID-beige mice)?
The value was 4.00 mm³.

And the “Tumor Volume (mm³) Day 86, Mean” value (group mean, 25 mg/kg q7dx3 IV, OPM-2 (DSMZ) xenograft, SCID-beige mice, Day 86)?
Its value is 4.00 mm³.

And the “Tumor Volume (mm³) Day 93, Mean” value (group mean, 25 mg/kg q7dx3 IV, OPM-2 (DSMZ) xenograft, SCID-beige mice, Day 93)?
The value was 4.00 mm³.

What about the “Tumor Volume (mm³) Day 101, Mean” value (group mean, 25 mg/kg q7dx3 IV, OPM-2 (DSMZ) xenograft, SCID-beige mice, Day 101) of the same compound?
The value was 4.00 mm³.

What about the “Tumor Volume (mm³) Day 51, Mean” value (group mean, 25 mg/kg q7dx3 IV, OPM-2 (DSMZ) xenograft, SCID-beige mouse, Day 51) of the same compound?
The value was 4.00 mm³.

What about the “Tumor Volume (mm³) Day 57, Mean” value (group mean, 25 mg/kg q7dx3 IV, OPM-2 (DSMZ) xenograft, SCID-beige mouse, Day 57) of the same compound?
The value was 4.00 mm³.

What about the “Tumor Volume Day 37, Median” value (group median, 6.25 mg/kg q7dx3 IV, Day 37, OPM-2 (DSMZ) xenograft, SCID-beige mouse) of the same compound?
Its value is 1120.03 mm³.

What about the “Tumor Volume Day 37, Median” value (group median, 25 mg/kg q7dx3 IV, Day 37, OPM-2 (DSMZ) xenograft, SCID-beige mouse) of the same compound?
The value was 4.00 mm³.

And the “Tumor Volume Day 41, Median” value (group median, 25 mg/kg q7dx3 IV, Day 41, SCID-beige mice)?
The value was 4.00 mm³.

What about the “Tumor Volume Day 44, Median” value (group median, 25 mg/kg q7dx3 IV, Day 44, SCID-beige mice) of the same compound?
The value was 4.00 mm³.

And the “Tumor Volume (mm³) Day 86, Median” value (group median, 25 mg/kg q7dx3 IV, OPM-2 (DSMZ) xenograft, SCID-beige mice, Day 86)?
The value was 4.00 mm³.

What about the “Tumor Volume (mm³) Day 93, Median” value (group median, 25 mg/kg q7dx3 IV, OPM-2 (DSMZ) xenograft, SCID-beige mice, Day 93) of the same compound?
Its value is 4.00 mm³.

What about the “Tumor Volume (mm³) Day 101, Median” value (group median, 25 mg/kg q7dx3 IV, OPM-2 (DSMZ) xenograft, SCID-beige mice, Day 101) of the same compound?
Its value is 4.00 mm³.

And the “Tumor Volume (mm³) Day 51, Median” value (group median, 25 mg/kg q7dx3 IV, OPM-2 (DSMZ) xenograft, SCID-beige mouse, Day 51)?
The value was 4.00 mm³.

What about the “Tumor Volume (mm³) Day 57, Median” value (group median, 25 mg/kg q7dx3 IV, OPM-2 (DSMZ) xenograft, SCID-beige mouse, Day 57) of the same compound?
Its value is 4.00 mm³.

What about the “Mortality Observation Day 37” value [7] of the same compound?
Its value is “GRPX and EUTV (3×)”.

And the “Tumor Volume (mm³) Day 37” value [7]?
Its value is 830 mm³ and 1099 mm³ and 1199 mm³ and 1141 mm³.

And the “Tumor Volume (mm³) Day 37” value (individual animals, 25 mg/kg q7dx3 IV, Day 37, OPM-2 (DSMZ) xenograft, SCID-beige mouse)?
Its value is 4 mm³.

And the “Tumor Volume (mm³) Day 41” value (individual animals, 25 mg/kg q7dx3 IV, Day 41, SCID-beige mice)?
Its value is 4 mm³.

And the “Tumor Volume (mm³) Day 44” value (individual animals, 25 mg/kg q7dx3 IV, Day 44, SCID-beige mice)?
Its value is 4 mm³.

And the “Tumor Volume (mm³) Day 86” value (individual animals, 25 mg/kg q7dx3 IV, OPM-2 (DSMZ) xenograft, SCID-beige mice, Day 86)?
The value was 4 mm³.

And the “Tumor Volume (mm³) Day 93” value (individual animals, 25 mg/kg q7dx3 IV, OPM-2 (DSMZ) xenograft, SCID-beige mice, Day 93)?
The value was 4 mm³.

What about the “Tumor Volume (mm³) Day 101” value (individual animals, 25 mg/kg q7dx3 IV, OPM-2 (DSMZ) xenograft, SCID-beige mice, Day 101) of the same compound?
The value was 4 mm³.

What about the “Tumor Volume (mm³) Day 51” value (individual animals, 25 mg/kg q7dx3 IV, OPM-2 (DSMZ) xenograft, SCID-beige mouse, Day 51) of the same compound?
Its value is 4 mm³.

And the “Tumor Volume (mm³) Day 57” value (individual animals, 25 mg/kg q7dx3 IV, OPM-2 (DSMZ) xenograft, SCID-beige mouse, Day 57)?
The value was 4 mm³.

What about the “Body Weight (g) Day 21, individual animals” value (6.25 mg/kg) of the same compound?
Its value is 21 g.

And the “Body Weight Day 21, Mean” value (6.25 mg/kg)?
Its value is 21.00 g.

What about the “Body Weight Day 21, Median” value (6.25 mg/kg) of the same compound?
The value was 21.00 g.

And the “Relative to initial body wt., %” value (6.25 mg/kg)?
Its value is 0.00%.

And the “Body Weight (g) Day 21, individual animals” value (25 mg/kg)?
Its value is 22 g.

And the “Body Weight Day 21, Mean” value (25 mg/kg)?
Its value is 22.13 g.

And the “Body Weight Day 21, Median” value (25 mg/kg)?
The value was 22.13 g.

What about the “Relative to initial body wt., %” value (25 mg/kg) of the same compound?
Its value is 0.00%.

From PMC10600239, “Selective MCL-1 inhibitor ABBV-467 is efficacious in tumor models but is associated with cardiac troponin increases in patients” (Communications Medicine, 2023)
